This is an account of results in patent publication US20090118223A1, “Novel 2'-c-methyl and 4'c-methyl nucleoside derivatives” (priority 2005, published 2009).

Molecules are shown by their SMILES. Structures can show the parent of a compound that is named as a salt.

Series [1] can be described thus: Liver targeting of 2′-C-methylcytidine and its prodrugs in rats: liver NTP vs plasma nucleoside (Example K). The settings on record: male Sprague-Dawley rats, intraperitoneal, 5 mg/kg nucleoside equivalents. It counts as in vivo. As to the method: The liver specificity of the prodrug compounds 35.3, 35.4, and 35.5 was compared relative to the parent nucleoside, 2′-C-methylcytidine, by measuring the generation of NTP in the liver compared to nucleoside in the plasma.
Prodrug compounds 35.3, 35.4, 35.5, 38.3, 38.6, 40.1, 40.6, 40.7, 40.8, 41.2 or 2′-C-methylcytidine were administered intraperitoneally to male Sprague-Dawley rats at a dose of 5 mg/kg based on nucleoside equivalents (5 mg/kg 2′-C-methylcytidine and ˜7-10 mg/kg prodrug compounds). Plasma concentrations of 2′-C-methylcytidine and the liver concentrations of the 5′-triphosphate of 2′-C-methylcytidine were measured by LC-MS using the standard ion-pairing chromatography methods for nucleoside and triphospliate, respectively, as described in Example E. Conventional SAX HPLC-UV could not differentiate between endogenous CTP and 2′-C-methylcytidine triphosphate.

In series [2] the test system is HCV replication in human liver tissue. Description: HCV-infected human liver slice assay (Example F). In kind it is cell-based. Particulars: for amount of HCV RNA released into the culture medium from 48-72 h: treatment of HCV-infected human liver slices for 72 h. As to the method:
Inhibition of HCV replication in human liver tissue was evaluated using the following assay.
Liver from a brain-dead HCV antibody-positive human patient was perfused with ice-cold Viaspan (Dupont Pharmaceutical) preservation solution and received on ice in Viaspan.
Precision-cut liver slices of 200-250 μm thickness and […] diameter were prepared and cultured in Waymouth's cell culture medium (Gibco, Inc.) that was supplemented with 10% fetal bovine serum and 10 mL/L Fungi-Bact at 37° C., and gassed with carbogen (95% O2, 5% CO2) at 0.75 liters/min. Tissue slices were maintained in culture for 72 h. Cell culture medium containing test compound in solution was changed on a daily basis.
At appropriate times of liver slice incubation, liver slices and medium were collected for analysis of HCV RNA (tissue and medium) and nucleotide levels (NTP). All collected media and tissue slices were maintained in liquid N2 until analysis.
Medium and tissue samples were analyzed for HCV RNA levels according to published procedures (Bonacini et. al., 1999) which utilize an automated, multicycle, polymerase chain reaction (PCR)-based technique. This assay has a lower limit of detection for HCV RNA of 100 viral copies/ml.
Frozen liver slices were disrupted by using a combination of ultrasound probe sonication, Branson Sonifier 450 (Branson Ultrasonics, Danbury, Conn.) and homogenization using a Dounce conical pestle in 200 μls of 10% (v/v) perchloric acid (PCA). After a […] centrifugation at 2,500×g, the supernatants were neutralized using 3 M KOH/3 M KHCO3 and mixed thoroughly. The neutralized samples were centrifuged at 2,500 g for 5 min and NTP levels were determined by ion exchange phase HPLC (Hewlett Packard 1050) using a Whatman Partisil 5 SAX (5 μm, 4.6×250 mm) column. […] Nucleoside triphosphates were eluted from the column using a linear gradient to 80% 1 M ammonium phosphate pH 3.5/6% ethanol buffer, at a flow rate of 1.25 mL/min and detected by UV absorbance (254 nm).

Consider `CC(C)[C@H](N)C(=O)O[C@@H]1[C@@H](CO[P@@]2(=O)OCC[C@@H](c3cccc(Cl)c3)O2)O[C@@H](n2ccc(N)nc2=O)[C@]1(C)O.O=C(O)C(F)(F)F` (relative stereo) [Compound 41.2, cis-5′-O-[4-(S)-(3-Chlorophenyl)-2-oxo-1,2,3-dioxaphosphorin-2-yl]-2′-C-methyl-3′-(L-valinyl)cytidine trifluoroacetic acid salt], for which the “Liver Targeting Index (Liver/Plasma)” value in series [1] is listed as 302. In series [1] (2′-C-methylcytidine), the Cmax came out at 340 nM. The “Prodrug Improvement (Fold)” value in series [1] (liver targeting over free nucleoside) amounted to 4081 Fold.

`CC(=O)O[C@@H]1[C@@H](CO[P@@]2(=O)OCC[C@@H](c3cccc(Cl)c3)O2)O[C@@H](n2ccc3c(N)ncnc32)[C@]1(C)O` [Compound 22.2, 4-amino-7-(3′-O-acetyl-cis-5′-O-[4-(S)-(3-chlorophenyl)-2-oxo-1,3,2-dioxaphosphorinan-2-yl]-2′-C-methyl-beta-D-ribofuranosyl)-7H-pyrrolo[2,3-d]pyrimidine] registered a melting point of 90 to 93 °C.

With `C[C@@]1(O)[C@H](O)[C@@H](CO)O[C@H]1n1cnc2c(=O)[nH]c(N)nc21` [2′-C-methylguanosine, reference compound], the “amount of HCV RNA released into the culture medium from 48-72 h” value in series [2] is listed as “decreased”.

The compound `C[C@@]1(O)[C@H](O)[C@@H](COP2(=O)OCC[C@H](c3ccccc3)O2)O[C@H]1n1ccc2c(=O)[nH]c(N)nc21` (stereo partly drawn) [Compound 17.16, 2-amino-7-(cis-5′-O-[4-(R)-phenyl-2-oxo-1,3,2-dioxaphosphorinan-2-yl]-2′-C methyl-beta-D-ribofuranosyl)-7H-pyrrolo[2,3-d]pyrimidin-4(3)-one] displayed a melting point of 128 to 133 °C.

Regarding `C[C@@]1(O)[C@H](O)[C@@H](CO[P@]2(=O)OCC[C@H](c3cccc(Cl)c3)O2)O[C@H]1n1cnc2c(=O)[nH]c(N)nc21` (relative stereo) [Compound 19, cis-5′-O-[4-(3-Chlorophenyl)-2-oxo-1,3,2-dioxaphosphorinan-2-yl]-2′-C-methylguanosine], the “lowering viral RNA production in the culture medium, prodrug compared with nucleoside 2′-C-methylguanosine” value in series [2] (HCV-infected human liver slices, 72 h) is “more effective”. Further, in series [2], the “amount of HCV RNA released into the culture medium from 48-72 h” value is reported as “decreased”.

In the case of `C[C@@]1(O)[C@H](O)[C@@H](COP2(=O)OCC[C@@H](c3ccncc3)O2)O[C@H]1n1ccc2c(=O)[nH]c(N)nc21` (stereo partly drawn) [Compound 17.13, 2-amino-7-(cis-5′-O-[4-(S)-(pyridin-4-yl)-2-oxo-1,3,2-dioxaphosphorinan-2-yl]-2′-C methyl-beta-D-ribofuranosyl)-7H-pyrrolo[2,3-d]pyrimidin-4(3H)-one], the melting point is 138 to 141 °C.

In turn, `CC(=O)O[C@@H]1[C@@H](CO[P@@]2(=O)OCCC(c3ccncc3)O2)O[C@@H](n2ccc3c(N)ncnc32)[C@]1(C)O` (some centres unmarked) [Compound 22.1] showed a melting point of 182 to 185 °C.

Regarding `C[C@@]1(O)[C@H](O)[C@@H](COP2(=O)OCC[C@H](c3cccc(Cl)c3)O2)O[C@H]1n1ccc2c(=O)[nH]c(N)nc21` (stereo partly drawn) (as salt: trifluoroacetic acid salt) [Compound 17.10, 2-amino-7-(cis-5′-O-[4-(R)-(3-chlorophenyl)-2-oxo-1,3,2-dioxaphosphorinan-2-yl]-2′-C methyl-beta-D-ribofuranosyl)-7H-pyrrolo[2,3-d]pyrimidin-4(3H)-one trifluoroacetic acid salt], the melting point is 170 to 180 °C.
